For data set [1] the following is noted: cited from earlier work.
Data set [2] is described as follows: TFM release rate in flow chamber, 11 L of water per minute. It is filed as physicochemical. The note with it: flow of 11 L of water per minute; 20 g TFM; FIG. 8, FIG. 9. The text has this:
To scale up from the tablet press, a hand-driven compression clamp was assembled in a fashion to create a compressed 20 g TFM cylinder 1 inch in diameter or combination of tablets adding to 20 g total TFM. Variables investigated were matrix type (tea bag vs porous cotton mesh), tablet size, formulation, and compression strength of formulation. The resulting tablets were placed into a flow chamber with a flow of 11 L of water per minute and aliquots were taken at designated time periods to evaluate TFM release rates.
Tablets H, I and J were all prepared according to Tablet E except that increasing amounts of sand were added as a density modifier to ensure tablets remained submerged.

As for `[Cu+2].[OH-].[OH-]` [Copper hydroxide], the solubility in water entry in data set [1] was “extremely low solubility”.

Turning to `O=[N+]([O-])c1ccc([O-])cc1C(F)(F)F.[K+]` [TFM phenoxide salt], the TFM release rate entry in data set [2] was “releases the fastest”. As for `O=C(O)COc1ccc(Cl)cc1Cl` [neutral 2,4-D, 2,4-Dichlorophenoxyacetic Acid], in data set [1], the solubility in water result is listed as “less water soluble”.

Values taken from patent US20190335749A1, “Adjustable Release Pesticide Tablet Formulations” (priority 2018, published 2019).
